For data set [1], the system named is MCF-7 cells (breast adenocarcinoma). The note with it: cited from earlier work.
Data set [2] relates to HT-29 cells (colon carcinoma). The arrangement: method as in PMID 32801055. The conditions noted are these: reference drug, literature value; cited from earlier work.
The test system of data set [3] is HTB-54 cells (lung adenocarcinoma). The arrangement: method as in PMID 22397496. The note with it: reference drug, literature value; cited from earlier work.
Data set [4] deals with HCT-116 cells (colon). The experiment in a line: MTT cell viability assay, HCT-116. The format is cell-based. The conditions noted are these: 48 h, MTT, mean ± SD, read-out: IC50 HCT-116 (colon). As for the experimental part: (§1) Cell lines were purchased from the American Type Culture Collection (ATCC). MCF-7, HTB-54, BEAS-2B and 184B5 cell lines were grown in RPMI 1640 medium (Gibco) supplemented with 10% fetal bovine serum (FBS; Gibco), 100 units/mL penicillin, and […] streptomycin (Gibco). HT-29 and HCT-116 cell lines was cultured in McCoy’s 5A (Gibco), 10% FBS, 100 units/mL penicillin, and 100 μg/mL streptomycin. Cells were maintained at 37 °C and 5% CO2. Culture medium was replaced every three days.
(§2) A cell viability assay of each compound was carried out using an MTT assay. Each selenourea was dissolved in dimethyl sulfoxide (DMSO) at a concentration of 0.01 M. Serial dilutions were prepared with non-supplemented culture medium. Cytotoxic activity of each selenourea was determined at two different concentrations (10 and 50 µM) in MCF-7, HTB-54, and HT-29 cells. In addition, selected compounds were tested at seven different concentrations (0.1, 1, 5, 10, 25, 50, 100 µM) on MCF-7, HT-29, HCT-116, HTB-54, 184B5, and BEAS-2B cells. The number of passages before defrosting the cells was 3, and they were kept under culture up to a maximum of 15.
(§3) Briefly, 1 × 10^4 cells/well were grown in 96-well plates for 24 h. Then, these cells were incubated with either DMSO (negative control) at 5 µM or a different concentration of each tested selenourea for 48 h. A volume of 20 µL of MTT was added 150 min before the termination point to measure cellular viability. After this time, culture medium was removed. The resultant formazan crystals were dissolved in 50 µL of DMSO, and absorbance was measured at 570 nm. Results are expressed as IC50, the half maximal inhibitory concentration. This value was calculated using GraphPad Prism 7 software by nonlinear curve fitting. Furthermore, the selectivity index (SI) was calculated as the ratio of the IC50 values determined for the non-malignant and the tumoral cells (IC50 (184B5)/IC50 (MCF-7) or (IC50 (BEAS-2B)/IC50 (HTB-54). Data were obtained from at least three independent experiments performed in triplicates.
For orientation: Formazan colour is commonly taken as a measure of viable cells.

Data set [5] has as its system HTB-54 cells (lung adenocarcinoma). The experiment in a line: MTT cell viability assay, HTB-54. The format is cell-based, human. The conditions noted are these: for IC50 / viability at 10 µM / viability at 50 µM: Homo sapiens, 48 h, MTT; for IC50: HTB-54, mean ± SD, read-out: IC50 HTB-54 (lung); for viability at 10 µM: HTB-54, 10 µM; for viability at 10 µM / viability at 50 µM: read-out: cell viability, percentage of live cells; for viability at 50 µM: HTB-54, 50 µM; for SI (selectivity index) lung: IC50 (BEAS-2B)/IC50 (HTB-54). The gist of the method:
(§4)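 Cells at 1 × 10^4/well grown 24 h, then treated 48 h with selenourea at 10 and 50 µM (selected compounds 0.1–100 µM), DMSO as negative control. MTT added 150 min before end, formazan read at 570 nm; IC50 by nonlinear fit, ≥3 independent experiments in triplicate.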

The test system of data set [6] is MCF-7 cells (breast adenocarcinoma). As to the kind of experiment: MTT cell viability assay, MCF-7. The format is cell-based, human. The note with it: for IC50 / viability at 10 µM / viability at 50 µM: Homo sapiens, MCF7, 48 h, MTT; for IC50: mean ± SD, read-out: IC50 MCF-7 (breast); for viability at 10 µM: MCF-7, 10 µM; for viability at 10 µM / viability at 50 µM: read-out: cell viability, percentage of live cells; for viability at 50 µM: MCF-7, 50 µM; for SI (selectivity index) breast: IC50 (184B5)/IC50 (MCF-7). The gist of the method:
as §4

Data set [7] has as its system MCF-7, HTB-54, HT-29 and HCT-116 cancer cell lines. As to the kind of experiment: MTT assay, panel of four cancer cell lines. The format is cell-based. The conditions noted are these: MCF-7, HTB-54, HT-29, HCT-116, read-out: IC50 against the four cancer cell lines tested (all the cell lines). The procedure: as §2, §3
Those derivatives that reduced the growth of the cell lines below 50% at 10 µM in at least one cell line were selected for being evaluated at five concentrations between […] and 100 µM. Ten compounds (1d, 1e, 2a, 2d, 3a, 6a, 6b, 6c, 6d, and 6e) passed this threshold and four of them (1e, 6c, 6d and 6e) in all three cancer cell lines. The data are expressed as IC50 (mean ± SD) in a panel of four cancer cell lines (MCF-7, HTB-54, HT-29, and HCT-116), and are shown in Table 1. Cisplatin was used as a standard drug. […] Additionally, reported IC50 values of a well-known antitumor selenocompound, i.e., sodium selenite (Na2SeO3), were used as reference for comparision with the selected selenoureas.

Data set [8] deals with 184B5 cells (breast non-malignant derived cell line). The experiment in a line: MTT cell viability assay, 184B5. The format is cell-based. The conditions noted are these: Homo sapiens, 184B5; 48 h, MTT, mean ± SD; read-out: IC50 184B5 (breast, non-malignant). The procedure: as §1, §2, §3
The test system of data set [9] is HT-29 cells (colon carcinoma). The experiment in a line: MTT cell viability assay, HT-29. The format is cell-based. The conditions noted are these: Homo sapiens, 48 h, MTT; for IC50: HT-29, mean ± SD, read-out: IC50 HT-29 (colon); for viability at 10 µM: HT-29, 10 µM; for viability at 10 µM / viability at 50 µM: read-out: cell viability, percentage of live cells; for viability at 50 µM: HT-29, 50 µM. The essentials: as §4

Data set [10] in a line: DPPH radical scavenging assay. The note with it: 0.03 mg/mL, time-point 0 min. A general note: The DPPH test is a chemical assay of radical scavenging.
Data set [11] deals with BEAS-2B cells (lung non-malignant derived cell line). The experiment in a line: MTT cell viability assay, BEAS-2B. The format is cell-based. The note with it: Homo sapiens, 48 h, mean ± SD. As for the experimental part:
as §1, §2, §3

A short description of data set [12]: ABTS radical scavenging assay. The note with it: 0.003 mg/mL, 60 min.

Like-named read-outs stand apart in the source and are kept apart here.

In the case of `N.N.[Cl][Pt][Cl]` [Cisplatin], the 50% inhibitory concentration (IC50) (usually the point on the concentration scale where inhibition reaches its midpoint) in data set [1] (reference drug, literature value, read-out: IC50 MCF-7 (breast)) was 15.2 ± 1.04 µM; in data set [2], 14.2 ± 0.73 µM; in [3], 13.7 ± 0.83 µM; in [4], 2.18 ± 1.58 µM.
For the compound `N#Cc1ccc(NC(=[Se])NCc2ccco2)cc1` [Compound 1e], the melting point (commonly the temperature, or range, at which the solid turns liquid) worked out at 128 °C. For the same compound, in data set [5], the 50% inhibitory concentration (IC50) was 9.79 ± 0.07 µM; the viability (in general, a read-out of living cells in per cent, often relative to untreated cells) at 10 µM came out at 35.7%; the viability at 50 µM turned out to be 9.3%; the “SI (selectivity index) lung” value is recorded as 0.61. Moreover, in [6], the IC50 was 9.96 ± 1.45 µM, the viability at 10 µM amounted to 48.8%, the viability at 50 µM came to 23.4% and the “SI (selectivity index) breast” value was 0.81. The concentration for half-maximal inhibition (IC50) in data set [7] was less than 10 µM. Also, in data set [8], the IC50 turned out to be 8.09 ± 1.21 µM. Besides, in [9], the IC50 amounted to 5.89 ± 1.32 µM, the viability at 10 µM stood at 36.2% and the viability at 50 µM worked out at 28.5%. For the same compound, the IC50 in data set [4] (Homo sapiens, HCT-116) came out at 9.14 ± 1.14 µM. Also, the “DPPH radical scavenging kinetics” value in data set [10] is reported as “reaching the maximum activity at time-point 0′”. The same compound yielded an IC50 in data set [11] of 6.01 ± 0.94 µM.
As for `Cc1ccc(NC(=[Se])NC23CC4CC(CC(C4)C2)C3)cc1` [Compound 6b], the melting point came to 169 °C. In [5], the IC50 amounted to 9.01 ± 2.6 µM, the viability at 10 µM was 44.2%, the viability at 50 µM was 26.1% and the “SI (selectivity index) lung” value turned out to be 0.83. Besides, the “ABTS radical scavenging activity compared with Trolox” value in data set [12] was “significant lower radical scavenging activity than Trolox”. Moreover, in data set [6], the IC50 was 5.52 ± 1.61 µM, the viability at 10 µM came to 40%, the viability at 50 µM is 9.2% and the “SI (selectivity index) breast” value is on record as 2.21. In addition, the IC50 in data set [7] was less than 10 µM. The IC50 in data set [8] is 12.2 ± 2.42 µM. Besides, in [9], the IC50 was determined as 5.67 ± 4.67 µM, the viability at 10 µM is 51.4% and the viability at 50 µM was determined as 46.8%. The IC50 in [4] (Homo sapiens, HCT-116) was determined as 6.29 ± 0.76 µM. For the same compound, the IC50 in data set [11] amounted to 7.56 ± 0.19 µM.
Compound `Clc1ccc(NC(=[Se])NC23CC4CC(CC(C4)C2)C3)cc1` [Compound 6d, N´-adamantyl-N-(4-chlorophenyl)selenourea] had a melting point of 177 °C. In [5], the 50% inhibitory concentration (IC50) stood at 6.56 ± 0.99 µM, the viability at 10 µM is 22.9%, the viability at 50 µM was 4.4% and the “SI (selectivity index) lung” value stood at 1.16. Besides, the “ABTS radical scavenging activity compared with Trolox” value in [12] was “significant lower radical scavenging activity than Trolox”. Moreover, in data set [6], the IC50 was found to be 7.19 ± 1.12 µM, the viability at 10 µM is 36.6%, the viability at 50 µM stood at 17.2% and the “SI (selectivity index) breast” value came out at 2.22. Further, the IC50 in data set [7] was less than 10 µM. Also, in data set [8], the concentration for half-maximal inhibition (IC50) worked out at 16 ± 2.74 µM. Besides, in data set [9], the IC50 was found to be 8.04 ± 2.17 µM, the viability at 10 µM was 45.9% and the viability at 50 µM came out at 23.7%. Moreover, the IC50 in data set [4] (Homo sapiens, HCT-116) stood at 6.95 ± 0.65 µM. In data set [11], this compound yielded an IC50 of 7.59 ± 0.53 µM.
In the case of `N#Cc1ccc(NC(=[Se])NC23CC4CC(CC(C4)C2)C3)cc1` [Compound 6e, N´-Adamanty-N-(4-cyanophenyl)selenourea], the concentration for half-maximal inhibition (IC50) in data set [5] is 6.09 ± 0.75 µM; in data set [6] it was 5.47 ± 3.91 µM; in [7], less than 10 µM; in [8] it was 7.69 ± 0.31 µM; in data set [9], 4.18 ± 0.46 µM; in [4] (Homo sapiens, HCT-116), 5.43 ± 0.86 µM. Besides, in data set [11], it took 2.36 ± 0.39 µM to reach half-maximal inhibition (IC50). In addition, the viability at 10 µM in data set [5] turned out to be 34%; in [6], 44.4%; in data set [9] it was 18.9%. The viability at 50 µM in data set [5] came out at 0.3%; in [6], 5.7%; in [9], 3.6%. For the same compound, in data set [5], the “SI (selectivity index) lung” value stood at 0.39. Besides, in data set [6], the “SI (selectivity index) breast” value is 1.41. Besides, the “DPPH radical scavenging kinetics” value in data set [10] was “reaching the maximum activity at time-point 0′”.
On to `O=[Se](O)O` [sodium selenite], for which, in data set [1] (after 72 h of treatment, read-out: IC50 in MCF-7 cells), the IC50 is 17 µM.
